Measured values: patent publication US20120157379A1, “Gastric Inhibitory Peptide Variants and Their Uses” (priority 2009, published 2012)

T1: GIP receptor (GIPR) (Homo sapiens, UniProt P48546)
T1 construct: host or cells: HEK293T
T1 sequence (P48546 22-466): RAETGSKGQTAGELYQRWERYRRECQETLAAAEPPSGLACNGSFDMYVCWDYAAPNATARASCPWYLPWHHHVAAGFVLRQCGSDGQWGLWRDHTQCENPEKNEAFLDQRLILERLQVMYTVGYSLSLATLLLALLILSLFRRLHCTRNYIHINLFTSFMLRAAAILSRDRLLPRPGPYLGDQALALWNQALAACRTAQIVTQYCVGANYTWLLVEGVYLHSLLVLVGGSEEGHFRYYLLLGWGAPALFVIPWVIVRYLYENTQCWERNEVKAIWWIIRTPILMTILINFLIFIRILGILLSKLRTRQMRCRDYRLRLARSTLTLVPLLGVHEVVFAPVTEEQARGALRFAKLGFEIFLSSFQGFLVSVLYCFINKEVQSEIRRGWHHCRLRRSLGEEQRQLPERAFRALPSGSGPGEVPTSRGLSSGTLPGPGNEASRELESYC

T2: recombinant wild type GIP receptor (GIPR) expressed in HEK293T cells (Homo sapiens (Human), UniProt P48546)
T2 sequence: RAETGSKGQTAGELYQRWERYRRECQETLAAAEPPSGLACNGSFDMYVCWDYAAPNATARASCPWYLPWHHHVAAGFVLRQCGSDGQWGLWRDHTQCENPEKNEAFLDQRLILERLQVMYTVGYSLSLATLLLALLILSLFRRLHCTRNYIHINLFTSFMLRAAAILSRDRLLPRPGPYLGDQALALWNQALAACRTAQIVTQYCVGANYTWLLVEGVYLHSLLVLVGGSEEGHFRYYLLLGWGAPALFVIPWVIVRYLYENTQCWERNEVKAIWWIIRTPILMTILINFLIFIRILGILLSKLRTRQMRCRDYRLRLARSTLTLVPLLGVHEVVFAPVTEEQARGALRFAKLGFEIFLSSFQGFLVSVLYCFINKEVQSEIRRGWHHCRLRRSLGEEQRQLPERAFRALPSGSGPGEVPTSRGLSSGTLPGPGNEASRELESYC

B1: GIP55G, extended 55-amino-acid GIP isoform encoded by the derived G-44394131 allele (G103) (ligand)
peptide: YAEGTFISDYSIAMDKIHQQDFVNWLLAQKGKKNDWKHNITQREARALELAGQAN
B2: GIP55S, extended 55-amino-acid GIP isoform encoded by the ancestral A-44394131 allele (S103) (ligand)
peptide: YAEGTFISDYSIAMDKIHQQDFVNWLLAQKGKKNDWKHNITQREARALELASQAN

Experiments:
[1] = Resistance to serum degradation: peptides incubated with human serum at 37 C, then tested for receptor activation; conditions: pooled normal human serum or pooled complement-preserved human serum, in vitro
Procedure: (§1) Vector, transfection, and receptor-activation assay. […] The treated peptides were frozen at −80 C before testing with transfected cells. Receptor-activation activities were assayed based on cAMP production in transfected cells, and were performed as described44. The receptor-activation results were analyzed using the GraphPad Prism 5 package.

[2] = tested on: fasting Sprague-Dawley rats; assay: In vivo glucose suppression assay; set-up: species or system rat; conditions: for blood glucose after exogenous glucose: 100 nmoles/kg peptide with glucose 3.8 g/kg intraperitoneal, 1 hr after injection
Procedure: The in vivo glucose suppression assay. Eight-week-old Sprague-Dawley rats were fasted overnight for 20 hours. […] Bloods were obtained via the tail vein at select time points after intraperitoneal injection of glucose with a peptide. Glucose levels in the blood were measured by an OneTouch Ultra Blood Glucose Monitoring System and OneTouch Ultra Test Strips (Johnson and Johnson).

[3] = biological target: T1, GIP receptor (GIPR); assay: Receptor-activation assay: cAMP production in HEK293T cells expressing recombinant GIP receptor; assay type: cell-based; conditions: for EC50: EC50 values (-Log EC50, mean ± SEM)
Procedure: as §1

[4] = biological target: T2, recombinant wild type GIP receptor …; assay: cell-based or functional assay
[5] = biological target: T2, recombinant wild type GIP receptor …; assay: cell-based or functional assay; remark: listed apart in the source

Row | Molecule | resistance to degradation by human serum, relative to GIP [1] | blood glucose after exogenous glucose [2] | -Log EC50 of cAMP production; peptide incubated 0 hr with pooled complement preserved human serum [4] | -Log EC50 of cAMP production; peptide incubated 0 hr with pooled human serum [4] | -Log EC50 of cAMP production; peptide incubated 3 hr with pooled complement preserved human serum [4] | -Log EC50 of cAMP production; peptide incubated 3 hr with pooled human serum [4] | -Log EC50 of cAMP production; peptide incubated 6 hr with pooled complement preserved human serum [4] | -Log EC50 of cAMP production; peptide incubated 6 hr with pooled human serum [4] | -Log EC50 of cAMP production; peptide incubated 12 hr with pooled complement preserved human serum [4] | -Log EC50 of cAMP production; peptide incubated 12 hr with pooled human serum [4] | EC50 of cAMP production in GIPR-expressing HEK293T cells [5] | other results
1 | CC[C@H](C)[C@H](NC(=O)[C@H](CO)NC(=O)[C@H](Cc1ccc(O)cc1)NC(=O)[C@H](CC(=O)O)NC(=O)[C@H](CO)NC(=O)[C@@H](NC(=O)[C@H](Cc1ccccc1)NC(=O)[C@@H](NC(=O)CNC(=O)[C@H](CCC(=O)O)NC(=O)[C@H](C)NC(=O)[C@@H](N)Cc1ccc(O)cc1)[C@@H](C)O)[C@@H](C)CC)C(=O)N[C@@H](C)C(=O)N[C@@H](CCSC)C(=O)N[C@@H](CC(=O)O)C(=O)N[C@@H](CCCCN)C(=O)N[C@H](C(=O)N[C@@H](Cc1c[nH]cn1)C(=O)N[C@@H](CCC(N)=O)C(=O)N[C@@H](CCC(N)=O)C(=O)N[C@@H](CC(=O)O)C(=O)N[C@@H](Cc1ccccc1)C(=O)N[C@H](C(=O)N[C@@H](CC(N)=O)C(=O)N[C@@H](Cc1c[nH]c2ccccc12)C(=O)N[C@@H](CC(C)C)C(=O)N[C@@H](CC(C)C)C(=O)N[C@@H](C)C(=O)N[C@@H](CCC(N)=O)C(=O)N[C@@H](CCCCN)C(=O)NCC(=O)N[C@@H](CCCCN)C(=O)N[C@@H](CCCCN)C(=O)N[C@@H](CC(N)=O)C(=O)N[C@@H](CC(=O)O)C(=O)N[C@@H](Cc1c[nH]c2ccccc12)C(=O)N[C@@H](CCCCN)C(=O)N[C@@H](Cc1c[nH]cn1)C(=O)N[C@@H](CC(N)=O)C(=O)N[C@H](C(=O)N[C@H](C(=O)N[C@@H](CCC(N)=O)C(=O)N[C@@H](CCCNC(=N)N)C(=O)N[C@@H](CCC(=O)O)C(=O)N[C@@H](C)C(=O)N[C@@H](CCCNC(=N)N)C(=O)N[C@@H](C)C(=O)N[C@@H](CC(C)C)C(=O)N[C@@H](CCC(=O)O)C(=O)N[C@@H](CC(C)C)C(=O)N[C@@H](C)C(=O)NCC(=O)N[C@@H](CCC(N)=O)C(=O)N[C@@H](C)C(=O)N[C@@H](CC(N)=O)C(=O)O)[C@@H](C)O)[C@@H](C)CC)C(C)C)[C@@H](C)CC [GIP55G] | significantly more resistant to degradation |  |  |  |  |  |  |  |  |  |  | 
2 | CC[C@H](C)[C@H](NC(=O)[C@H](CO)NC(=O)[C@H](Cc1ccc(O)cc1)NC(=O)[C@H](CC(=O)O)NC(=O)[C@H](CO)NC(=O)[C@@H](NC(=O)[C@H](Cc1ccccc1)NC(=O)[C@@H](NC(=O)CNC(=O)[C@H](CCC(=O)O)NC(=O)[C@H](C)NC(=O)[C@@H](N)Cc1ccc(O)cc1)[C@@H](C)O)[C@@H](C)CC)C(=O)N[C@@H](C)C(=O)N[C@@H](CCSC)C(=O)N[C@@H](CC(=O)O)C(=O)N[C@@H](CCCCN)C(=O)N[C@H](C(=O)N[C@@H](Cc1c[nH]cn1)C(=O)N[C@@H](CCC(N)=O)C(=O)N[C@@H](CCC(N)=O)C(=O)N[C@@H](CC(=O)O)C(=O)N[C@@H](Cc1ccccc1)C(=O)N[C@H](C(=O)N[C@@H](CC(N)=O)C(=O)N[C@@H](Cc1c[nH]c2ccccc12)C(=O)N[C@@H](CC(C)C)C(=O)N[C@@H](CC(C)C)C(=O)N[C@@H](C)C(=O)N[C@@H](CCC(N)=O)C(=O)N[C@@H](CCCCN)C(=O)NCC(=O)N[C@@H](CCCCN)C(=O)N[C@@H](CCCCN)C(=O)N[C@@H](CC(N)=O)C(=O)N[C@@H](CC(=O)O)C(=O)N[C@@H](Cc1c[nH]c2ccccc12)C(=O)N[C@@H](CCCCN)C(=O)N[C@@H](Cc1c[nH]cn1)C(=O)N[C@@H](CC(N)=O)C(=O)N[C@H](C(=O)N[C@H](C(=O)N[C@@H](CCC(N)=O)C(=O)N[C@@H](CCCNC(=N)N)C(=O)N[C@@H](CCC(=O)O)C(=O)N[C@@H](C)C(=O)N[C@@H](CCCNC(=N)N)C(=O)N[C@@H](C)C(=O)N[C@@H](CC(C)C)C(=O)N[C@@H](CCC(=O)O)C(=O)N[C@@H](CC(C)C)C(=O)N[C@@H](C)C(=O)N[C@@H](CO)C(=O)N[C@@H](CCC(N)=O)C(=O)N[C@@H](C)C(=O)N[C@@H](CC(N)=O)C(=O)O)[C@@H](C)O)[C@@H](C)CC)C(C)C)[C@@H](C)CC [GIP55S] | significantly more resistant to degradation | reduced glucose contents in the blood to basal levels |  |  |  |  |  |  |  |  |  | suppression of hyperglycemia ([2]; compared with conventional mature GIP): suppress hyperglycemias to similar extents; ranking of potency ([3]; 0 hr of human serum treatment (normal or complement preserved)): GIP>GIP55G>GIP55S; ranking of potency ([3]; 6 hr after treatment with human serum (normal or complement preserved)): GIP=GIP55G=GIP55S; ranking of potency ([3]; 12 hr after treatment with human serum (normal or complement preserved)): GIP55G>GIP55S≧GIP; lower potency relative to conventional GIP ([3]; EC50 compared with GIP, no serum treatment): ~3 fold; EC50 ([3]; with pooled complement preserved human serum, 0 hours of incubation): 3.72 nM; EC50 ([3]; with pooled complement preserved human serum, 3 hours of incubation): 3.24 nM; EC50 ([3]; with pooled complement preserved human serum, 6 hours of incubation): 16.2 nM; EC50 ([3]; with pooled complement preserved human serum, 12 hours of incubation): 75.9 nM; EC50 ([3]; with pooled human serum, 0 hours of incubation): 2.75 nM; EC50 ([3]; with pooled human serum, 3 hours of incubation): 4.57 nM; EC50 ([3]; with pooled human serum, 6 hours of incubation): 18.2 nM; EC50 ([3]; with pooled human serum, 12 hours of incubation): 41.7 nM; cAMP production in GIP receptor-expressing HEK293T cells ([3]; cells treated with synthetic peptides for 12 hr, total cAMP in cell lysates): dose-dependent increases of cAMP production
3 | CC[C@H](C)[C@H](NC(=O)[C@H](CO)NC(=O)[C@H](Cc1ccc(O)cc1)NC(=O)[C@H](CC(=O)O)NC(=O)[C@H](CO)NC(=O)[C@@H](NC(=O)[C@H](Cc1ccccc1)NC(=O)[C@@H](NC(=O)CNC(=O)[C@H](CCC(=O)O)NC(=O)[C@H](C)NC(=O)[C@@H](N)Cc1ccc(O)cc1)[C@@H](C)O)[C@@H](C)CC)C(=O)N[C@@H](C)C(=O)N[C@@H](CCSC)C(=O)N[C@@H](CC(=O)O)C(=O)N[C@@H](CCCCN)C(=O)N[C@H](C(=O)N[C@@H](Cc1c[nH]cn1)C(=O)N[C@@H](CCC(N)=O)C(=O)N[C@@H](CCC(N)=O)C(=O)N[C@@H](CC(=O)O)C(=O)N[C@@H](Cc1ccccc1)C(=O)N[C@H](C(=O)N[C@@H](CC(N)=O)C(=O)N[C@@H](Cc1c[nH]c2ccccc12)C(=O)N[C@@H](CC(C)C)C(=O)N[C@@H](CC(C)C)C(=O)N[C@@H](C)C(=O)N[C@@H](CCC(N)=O)C(=O)N[C@@H](CCCCN)C(=O)NCC(=O)N[C@@H](CCCCN)C(=O)N[C@@H](CCCCN)C(=O)N[C@@H](CC(N)=O)C(=O)N[C@@H](CC(=O)O)C(=O)N[C@@H](Cc1c[nH]c2ccccc12)C(=O)N[C@@H](CCCCN)C(=O)N[C@@H](Cc1c[nH]cn1)C(=O)N[C@@H](CC(N)=O)C(=O)N[C@H](C(=O)N[C@H](C(=O)N[C@@H](CCC(N)=O)C(=O)O)[C@@H](C)O)[C@@H](C)CC)C(C)C)[C@@H](C)CC [GIP, Gastric inhibitory polypeptide, reference compound] |  | reduced glucose contents in the blood to basal levels |  |  |  |  |  |  |  |  |  | 
4 | B1 |  |  | 8.51 -Log EC50 | 8.47 -Log EC50 | 8.22 -Log EC50 | 8.32 -Log EC50 | 7.88 -Log EC50 | 8.02 -Log EC50 | 7.86 -Log EC50 | 7.93 -Log EC50 | 3.2 nM | 
5 | B2 |  |  | 8.43 -Log EC50 | 8.56 -Log EC50 | 8.49 -Log EC50 | 8.34 -Log EC50 | 7.79 -Log EC50 | 7.74 -Log EC50 | 7.12 -Log EC50 | 7.38 -Log EC50 | 2.6 nM | 
